This passage reports TGI results from PubChem BioAssay (NCI).

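A five-concentration, 48-hour dose response in 96-well plates underlies each endpoint, interpolated linearly between surrounding concentrations. TGI is the concentration that stops growth completely.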 Where only a bound is given, the exact number is not on record here.

The first experiment has as its system SF-295 CNS. As to the kind of experiment: growth of human tumour cells (NCI), 48 h.
On to `CCN1CCCc2cc3c(C(F)(F)F)cc(=O)oc3cc21`, for which the TGI was > 100 µM.

The test system of the next experiment is UO-31 renal. As to the kind of experiment: growth of human tumour cells (NCI), 48 h.
For the compound `O=[N+]([O-])c1ccc(CSc2nncc3[nH]cnc23)cc1`, the TGI was > 100 µM.

As to `N#CSCC(Cl)=CCl` (mixture of isomers), the TGI was > 100 µM.

On to `CCN1CCCc2cc3c(C(F)(F)F)cc(=O)oc3cc21`, for which the TGI was > 100 µM.

The next experiment relates to SF-268 CNS. The experiment in a line: growth of human tumour cells (NCI), 48 h.
On to `CCCCCCCCCC[C@@H](OC(C)=O)[C@@H]1CC[C@@H]([C@@H]2CC[C@@H]([C@@H](O)CC#C/C=C/CCCCCCC[C@@]3(Sc4ccccc4)C[C@H](C)OC3=O)O2)O1`, for which the TGI was > 10 µM.

For `N#CSCC(Cl)=CCl` (mixture of isomers), the TGI was > 100 µM.

As to `CCN1CCCc2cc3c(C(F)(F)F)cc(=O)oc3cc21`, the TGI was > 100 µM.

The test system of the next experiment is HT29 colon. As to the kind of experiment: growth of human tumour cells (NCI), 48 h.
For the compound `CCCCCCCCCC[C@@H](OC(C)=O)[C@@H]1CC[C@@H]([C@@H]2CC[C@@H]([C@@H](O)CC#C/C=C/CCCCCCC[C@@]3(Sc4ccccc4)C[C@H](C)OC3=O)O2)O1`, the TGI is > 10 µM.

Turning to `O=[N+]([O-])c1ccc(CSc2nncc3[nH]cnc23)cc1`, the TGI was > 100 µM.

With `N#CSCC(Cl)=CCl` (mixture of isomers), the TGI was > 100 µM.

For the compound `CCN1CCCc2cc3c(C(F)(F)F)cc(=O)oc3cc21`, the TGI is > 100 µM.

A further experiment relates to OVCAR-8 ovarian. As to the kind of experiment: growth of human tumour cells (NCI), 48 h.
On to `CCCCCCCCCC[C@@H](OC(C)=O)[C@@H]1CC[C@@H]([C@@H]2CC[C@@H]([C@@H](O)CC#C/C=C/CCCCCCC[C@@]3(Sc4ccccc4)C[C@H](C)OC3=O)O2)O1`, for which the TGI is > 10 µM.

In the case of `O=[N+]([O-])c1ccc(CSc2nncc3[nH]cnc23)cc1`, the TGI was > 100 µM.

In the case of `N#CSCC(Cl)=CCl` (mixture of isomers), the TGI was > 100 µM.

In the case of `CCN1CCCc2cc3c(C(F)(F)F)cc(=O)oc3cc21`, the TGI was > 100 µM.

The subject of the next experiment is LOX IMVI melanoma. The experiment in a line: growth of human tumour cells (NCI), 48 h.
For `CCCCCCCCCC[C@@H](OC(C)=O)[C@@H]1CC[C@@H]([C@@H]2CC[C@@H]([C@@H](O)CC#C/C=C/CCCCCCC[C@@]3(Sc4ccccc4)C[C@H](C)OC3=O)O2)O1`, the TGI was > 10 µM.

As for `O=[N+]([O-])c1ccc(CSc2nncc3[nH]cnc23)cc1`, the TGI was > 100 µM.

`N#CSCC(Cl)=CCl` (mixture of isomers) had a TGI of 71.7 µM.

Take `CCN1CCCc2cc3c(C(F)(F)F)cc(=O)oc3cc21`: the TGI is > 100 µM.

For the next experiment, the system named is NCI-H460 lung. The experiment in a line: growth of human tumour cells (NCI), 48 h.
On to `N#CSCC(Cl)=CCl` (mixture of isomers), for which the TGI is > 100 µM.

For the compound `CCN1CCCc2cc3c(C(F)(F)F)cc(=O)oc3cc21`, the TGI is > 100 µM.

Another experiment relates to SK-MEL-5 melanoma. The experiment in a line: growth of human tumour cells (NCI), 48 h.
With `CCCCCCCCCC[C@@H](OC(C)=O)[C@@H]1CC[C@@H]([C@@H]2CC[C@@H]([C@@H](O)CC#C/C=C/CCCCCCC[C@@]3(Sc4ccccc4)C[C@H](C)OC3=O)O2)O1`, the TGI is > 10 µM.

Consider `O=[N+]([O-])c1ccc(CSc2nncc3[nH]cnc23)cc1`, for which the TGI is > 100 µM.

Take `N#CSCC(Cl)=CCl` (mixture of isomers): the TGI was > 100 µM.

Turning to `CCN1CCCc2cc3c(C(F)(F)F)cc(=O)oc3cc21`, the TGI came to 72.3 µM.

The next experiment concerns ACHN renal. The experiment in a line: growth of human tumour cells (NCI), 48 h.
Consider `O=[N+]([O-])c1ccc(CSc2nncc3[nH]cnc23)cc1`, for which the TGI was > 100 µM.

For `N#CSCC(Cl)=CCl` (mixture of isomers), the TGI is > 100 µM.

Turning to `CCN1CCCc2cc3c(C(F)(F)F)cc(=O)oc3cc21`, the TGI was > 100 µM.

Another experiment relates to EKVX NSCLC. The experiment in a line: growth of human tumour cells (NCI), 48 h.
Turning to `CCCCCCCCCC[C@@H](OC(C)=O)[C@@H]1CC[C@@H]([C@@H]2CC[C@@H]([C@@H](O)CC#C/C=C/CCCCCCC[C@@]3(Sc4ccccc4)C[C@H](C)OC3=O)O2)O1`, the TGI is > 10 µM.

With `O=[N+]([O-])c1ccc(CSc2nncc3[nH]cnc23)cc1`, the TGI was > 100 µM.

`N#CSCC(Cl)=CCl` (mixture of isomers): the TGI was > 100 µM.

Take `CCN1CCCc2cc3c(C(F)(F)F)cc(=O)oc3cc21`: the TGI was > 100 µM.

Another experiment deals with HL-60(TB) leukemia. The experiment in a line: growth of human tumour cells (NCI), 48 h.
Turning to `CCCCCCCCCC[C@@H](OC(C)=O)[C@@H]1CC[C@@H]([C@@H]2CC[C@@H]([C@@H](O)CC#C/C=C/CCCCCCC[C@@]3(Sc4ccccc4)C[C@H](C)OC3=O)O2)O1`, the TGI was > 10 µM.

Take `O=[N+]([O-])c1ccc(CSc2nncc3[nH]cnc23)cc1`: the TGI is > 100 µM.

For the compound `N#CSCC(Cl)=CCl` (mixture of isomers), the TGI was > 100 µM.

The test system of the next experiment is HCT-116 colon. As to the kind of experiment: growth of human tumour cells (NCI), 48 h.
Take `O=[N+]([O-])c1ccc(CSc2nncc3[nH]cnc23)cc1`: the TGI is > 100 µM.

On to `N#CSCC(Cl)=CCl` (mixture of isomers), for which the TGI is > 100 µM.

On to `CCN1CCCc2cc3c(C(F)(F)F)cc(=O)oc3cc21`, for which the TGI was > 100 µM.

For another experiment, the system named is MDA-MB-231 breast. As to the kind of experiment: growth of human tumour cells (NCI), 48 h.
Consider `CCCCCCCCCC[C@@H](OC(C)=O)[C@@H]1CC[C@@H]([C@@H]2CC[C@@H]([C@@H](O)CC#C/C=C/CCCCCCC[C@@]3(Sc4ccccc4)C[C@H](C)OC3=O)O2)O1`, for which the TGI is > 10 µM.

As to `O=[N+]([O-])c1ccc(CSc2nncc3[nH]cnc23)cc1`, the TGI is > 100 µM.

For the compound `N#CSCC(Cl)=CCl` (mixture of isomers), the TGI was > 100 µM.

As for `CCN1CCCc2cc3c(C(F)(F)F)cc(=O)oc3cc21`, the TGI is > 100 µM.

Another experiment has as its system HOP-92 NSCLC. As to the kind of experiment: growth of human tumour cells (NCI), 48 h.
`O=[N+]([O-])c1ccc(CSc2nncc3[nH]cnc23)cc1` registered a TGI of 67.1 µM.

In the case of `N#CSCC(Cl)=CCl` (mixture of isomers), the TGI was > 100 µM.

In turn, `CCN1CCCc2cc3c(C(F)(F)F)cc(=O)oc3cc21` showed a TGI of 84 µM.

A further experiment has as its system CCRF-CEM leukemia. As to the kind of experiment: growth of human tumour cells (NCI), 48 h.
Turning to `CCCCCCCCCC[C@@H](OC(C)=O)[C@@H]1CC[C@@H]([C@@H]2CC[C@@H]([C@@H](O)CC#C/C=C/CCCCCCC[C@@]3(Sc4ccccc4)C[C@H](C)OC3=O)O2)O1`, the TGI was > 10 µM.

Regarding `O=[N+]([O-])c1ccc(CSc2nncc3[nH]cnc23)cc1`, the TGI was > 100 µM.

For the compound `N#CSCC(Cl)=CCl` (mixture of isomers), the TGI is > 100 µM.

The subject of another experiment is MALME-3M melanoma. The experiment in a line: growth of human tumour cells (NCI), 48 h.
Consider `CCCCCCCCCC[C@@H](OC(C)=O)[C@@H]1CC[C@@H]([C@@H]2CC[C@@H]([C@@H](O)CC#C/C=C/CCCCCCC[C@@]3(Sc4ccccc4)C[C@H](C)OC3=O)O2)O1`, for which the TGI is > 10 µM.

Consider `O=[N+]([O-])c1ccc(CSc2nncc3[nH]cnc23)cc1`, for which the TGI was > 100 µM.

Regarding `N#CSCC(Cl)=CCl` (mixture of isomers), the TGI is > 100 µM.
